Data on 4 compounds can be found in US20170173002A1, “Compositions and Methods for Treating an Infection” (CMPD LICENSING, LLC, priority 2015, published 2017).

The test system of experiment [1] is gram-positive staphylococci and streptococci. The note with it: background description of the drug; cited from earlier work.
The subject of experiment [2] is Bacteroides fragilis. Briefly: Expected efficacy of antibiotic agents. The note with it: expected efficacy against Bacteroides fragilis.
Experiment [3] concerns Haemophilus influenzae. Nature of the experiment: Expected efficacy of antibiotic agents. The note with it: expected efficacy against Haemophilus influenzae.
Experiment [4] has as its system Klebsiella oxytoca. Briefly: Expected efficacy of antibiotic agents. As to conditions: expected efficacy against Klebsiella oxytoca.
In experiment [5] the test system is Pseudomonas aeruginosa. Briefly: Expected efficacy of antibiotic agents. As to conditions: expected efficacy against Pseudomonas aeruginosa.
The subject of experiment [6] is Staphylococcus aureus (MSSA). Briefly: Expected efficacy of antibiotic agents. As to conditions: expected efficacy against Staphylococcus aureus (MSSA).
The test system of experiment [7] is Enterococcus faecalis. Nature of the experiment: Expected efficacy of antibiotic agents. As to conditions: expected efficacy against Enterococcus faecalis.
Experiment [8] has as its system Peptostreptococcus. Nature of the experiment: Expected efficacy of antibiotic agents. As to conditions: expected efficacy against Peptostreptococcus.
Experiment [9] concerns Morganella morganii. Nature of the experiment: Expected efficacy of antibiotic agents. As to conditions: expected efficacy against Morganella morganii.
The subject of experiment [10] is Shigella dysenteriae. Nature of the experiment: Expected efficacy of antibiotic agents. As to conditions: expected efficacy against Shigella dysenteriae.
Experiment [11] relates to Methicillin resistant staph aureus (MRSA). Nature of the experiment: Expected efficacy of antibiotic agents. As to conditions: expected efficacy against Methicillin resistant staph aureus (MRSA).
In experiment [12] the test system is Yersinia pestis.
Experiment [13] deals with Shigella boydii. Briefly: Expected efficacy of antibiotic agents. As to conditions: expected efficacy against Shigella boydii.
The subject of experiment [14] is Enterobacter aerogenes. Nature of the experiment: Expected efficacy of antibiotic agents. The note with it: expected efficacy against Enterobacter aerogenes.
Experiment [15] concerns Serratia marcescens. Briefly: Expected efficacy of antibiotic agents. The note with it: expected efficacy against Serratia marcescens.
For experiment [16], the system named is Neisseria gonorrhoeae. Briefly: Expected efficacy of antibiotic agents. The note with it: expected efficacy against Neisseria gonorrhoeae.
Experiment [17] deals with Brucella species.
Experiment [18] deals with Mycoplasma pneumoniae. Briefly: Expected efficacy of antibiotic agents. As to conditions: expected efficacy against Mycoplasma pneumoniae.
The test system of experiment [19] is Providencia stuartii. Briefly: Expected efficacy of antibiotic agents. As to conditions: expected efficacy against Providencia stuartii.
The test system of experiment [20] is Clostridium difficile. Nature of the experiment: Expected efficacy of antibiotic agents. As to conditions: expected efficacy against Clostridium difficile.
The subject of experiment [21] is Enterococcus faecium. Briefly: Expected efficacy of antibiotic agents. The note with it: expected efficacy against Enterococcus faecium.
Experiment [22] relates to Corynebacterium urealyticum. Nature of the experiment: Expected efficacy of antibiotic agents. The note with it: expected efficacy against Corynebacterium urealyticum.
The test system of experiment [23] is Enterobacter sakazakii. Briefly: Expected efficacy of antibiotic agents. The note with it: expected efficacy against Enterobacter sakazakii.
Experiment [24] deals with Acinetobacter calcoaceticus. Briefly: Expected efficacy of antibiotic agents. The note with it: expected efficacy against Acinetobacter calcoaceticus.
In experiment [25] the test system is Haemophilus parainfluenzae. Nature of the experiment: Expected efficacy of antibiotic agents. As to conditions: expected efficacy against Haemophilus parainfluenzae.
In experiment [26] the test system is Rickettsiae.
The test system of experiment [27] is Moraxella catarrhalis. Briefly: Expected efficacy of antibiotic agents. The note with it: expected efficacy against Moraxella catarrhalis.
In experiment [28] the test system is Chlamydia trachomatis. Nature of the experiment: Expected efficacy of antibiotic agents. The note with it: expected efficacy against Chlamydia trachomatis.
The subject of experiment [29] is Legionella pneumophila.
In experiment [30] the test system is Klebsiella (Calymmatobacterium) granulomatis. Briefly: Expected efficacy of antibiotic agents. As to conditions: expected efficacy against Klebsiella (Calymmatobacterium) granulomatis.
Experiment [31] concerns Streptococcus agalactiae. Briefly: Expected efficacy of antibiotic agents. As to conditions: expected efficacy against Streptococcus agalactiae.
Experiment [32] has as its system Campylobacter jejuni. Briefly: Expected efficacy of antibiotic agents. As to conditions: expected efficacy against Campylobacter jejuni.
The subject of experiment [33] is Bartonella bacilliformis. Nature of the experiment: Expected efficacy of antibiotic agents. As to conditions: expected efficacy against Bartonella bacilliformis.
For experiment [34], the system named is Viridans group streptococci. Briefly: Expected efficacy of antibiotic agents. As to conditions: expected efficacy against Viridans group streptococci.
In experiment [35] the test system is Acinetobacter baumannii. Briefly: Expected efficacy of antibiotic agents. The note with it: expected efficacy against Acinetobacter baumannii.
Experiment [36] has as its system Bordetella pertussis. Briefly: Expected efficacy of antibiotic agents. The note with it: expected efficacy against Bordetella pertussis.
The subject of experiment [37] is Pseudomonas fluorescens. Nature of the experiment: Expected efficacy of antibiotic agents. As to conditions: expected efficacy against Pseudomonas fluorescens.
Experiment [38] has as its system Francisella tularensis.
The subject of experiment [39] is Providencia rettgeri. Briefly: Expected efficacy of antibiotic agents. The note with it: expected efficacy against Providencia rettgeri.
Experiment [40] relates to Klebsiella pneumoniae. Nature of the experiment: Expected efficacy of antibiotic agents. The note with it: expected efficacy against Klebsiella pneumoniae.
Experiment [41] has as its system Corynebacterium jeikeium. Briefly: Expected efficacy of antibiotic agents. As to conditions: expected efficacy against Corynebacterium jeikeium.
Experiment [42] has as its system Proteus vulgaris. Nature of the experiment: Expected efficacy of antibiotic agents. The note with it: expected efficacy against Proteus vulgaris.
For experiment [43], the system named is Neisseria meningitidis. Nature of the experiment: Expected efficacy of antibiotic agents. The note with it: expected efficacy against Neisseria meningitidis.
Experiment [44] deals with Chlamydia pneumoniae. Nature of the experiment: Expected efficacy of antibiotic agents. As to conditions: expected efficacy against Chlamydia pneumoniae.
Experiment [45] concerns Shigella flexneri. Nature of the experiment: Expected efficacy of antibiotic agents. As to conditions: expected efficacy against Shigella flexneri.
Experiment [46] has as its system Clostridium perfringens.
The test system of experiment [47] is Citrobacter freundii. Nature of the experiment: Expected efficacy of antibiotic agents. As to conditions: expected efficacy against Citrobacter freundii.
The subject of experiment [48] is Proteus mirabilis. Briefly: Expected efficacy of antibiotic agents. The note with it: expected efficacy against Proteus mirabilis.
Experiment [49] deals with Citrobacter diversus. Briefly: Expected efficacy of antibiotic agents. The note with it: expected efficacy against Citrobacter diversus.
Experiment [50] concerns Shigella sonnei. Nature of the experiment: Expected efficacy of antibiotic agents. The note with it: expected efficacy against Shigella sonnei.
Experiment [51] concerns Vibrio cholerae. Briefly: Expected efficacy of antibiotic agents. The note with it: expected efficacy against Vibrio cholerae.
Experiment [52] relates to Haemophilus ducreyi. Briefly: Expected efficacy of antibiotic agents. As to conditions: expected efficacy against Haemophilus ducreyi.
In experiment [53] the test system is Escherichia coli. Nature of the experiment: Expected efficacy of antibiotic agents. The note with it: expected efficacy against Escherichia coli.
Experiment [54] has as its system Salmonella typhi. Nature of the experiment: Expected efficacy of antibiotic agents. As to conditions: expected efficacy against Salmonella typhi.
The subject of experiment [55] is Diphtheroids. Nature of the experiment: Expected efficacy of antibiotic agents. As to conditions: expected efficacy against Diphtheroids.
In experiment [56] the test system is Streptococcus pyogenes. Nature of the experiment: Expected efficacy of antibiotic agents. The note with it: expected efficacy against Streptococcus pyogenes.
Experiment [57] has as its system Streptococcus pneumoniae. Nature of the experiment: Expected efficacy of antibiotic agents. As to conditions: expected efficacy against Streptococcus pneumoniae.
In experiment [58] the test system is Chlamydia psittaci.
In experiment [59] the test system is Enterobacter cloacae. Nature of the experiment: Expected efficacy of antibiotic agents. As to conditions: expected efficacy against Enterobacter cloacae.
Experiment [60] relates to Acinetobacter lwoffii. Briefly: Expected efficacy of antibiotic agents. As to conditions: expected efficacy against Acinetobacter lwoffii.
Experiment [61] has as its system Staphylococcus epidermidis. Nature of the experiment: Expected efficacy of antibiotic agents. As to conditions: expected efficacy against Staphylococcus epidermidis.
The subject of experiment [62] is Aspergillus flavus. Briefly: Expected efficacy of antifungal agents. The note with it: expected efficacy against Aspergillus flavus.
The subject of experiment [63] is Aspergillus fumigatus. Nature of the experiment: Expected efficacy of antifungal agents. As to conditions: expected efficacy against Aspergillus fumigatus.
In experiment [64] the test system is Leishmania donovani. Briefly: Expected efficacy of antifungal agents. The note with it: expected efficacy against Leishmania donovani.
Experiment [65] has as its system Leishmania infantum. Nature of the experiment: Expected efficacy of antifungal agents. As to conditions: expected efficacy against Leishmania infantum.
For experiment [66], the system named is Candida species. Nature of the experiment: Expected efficacy of antifungal agents. As to conditions: expected efficacy against Candida species.
In experiment [67] the test system is Cryptococcus neoformans. Briefly: Expected efficacy of antifungal agents. The note with it: expected efficacy against Cryptococcus neoformans.
Experiment [68] relates to Coccidioides immitis. The note with it: expected efficacy against Coccidioides immitis.
For experiment [69], the system named is Paracoccidioides brasiliensis. Briefly: Expected efficacy of antifungal agents. The note with it: expected efficacy against Paracoccidioides brasiliensis.
Experiment [70] has as its system Histoplasma capsulatum. As to conditions: expected efficacy against Histoplasma capsulatum.
The test system of experiment [71] is Aspergillus niger. Nature of the experiment: Expected efficacy of antifungal agents. As to conditions: expected efficacy against Aspergillus niger.
Experiment [72] concerns Blastomyces dermatitidis. Nature of the experiment: Expected efficacy of antifungal agents. As to conditions: expected efficacy against Blastomyces dermatitidis.
Experiment [73] concerns Aspergillus terreus. Briefly: Expected efficacy of antifungal agents. As to conditions: expected efficacy against Aspergillus terreus.

Each structure is given as a SMILES string.

For `C/C(=C\C(=O)OCCCCCCCCC(=O)O)C[C@@H]1OC[C@H](C[C@@H]2O[C@H]2[C@@H](C)[C@@H](C)O)[C@@H](O)C1O` (some centres unmarked) [Mupirocin], the “activity against gram-positive staphylococci and streptococci” value in [1] was “excellent activity”.
Regarding `CN[C@H](CC(C)C)C(=O)N[C@H]1C(=O)N[C@@H](CC(N)=O)C(=O)N[C@H]2C(=O)N[C@H]3C(=O)N[C@H](C(=O)N[C@H](C(=O)O)c4cc(O)cc(O)c4-c4cc3ccc4O)[C@H](O)c3ccc(c(Cl)c3)Oc3cc2cc(c3O[C@@H]2O[C@H](CO)[C@@H](O)[C@H](O)[C@H]2O[C@H]2C[C@](C)(N)[C@H](O)[C@H](C)O2)Oc2ccc(cc2Cl)[C@H]1O` [Vancomycin], the Efficacy entry is listed as “no” in experiment [2]; “no” in experiment [3]; “no” in experiment [4]; “no” in experiment [5]; “yes” in experiment [6]; “yes” in experiment [7]. Also, the Efficacy result in experiment [8] is given as “yes”; in experiment [9], “no”; in [10] it was “no”; in experiment [11], “yes”; in experiment [12], “no”; in experiment [13], “no”. For the same compound, the Efficacy entry in experiment [14], in experiment [15], in experiment [16], in [17], in experiment [18] and in [19] was “no” throughout. The Efficacy entry in experiment [20] is “yes”; in experiment [21] it was “yes, not VRE”; in experiment [22], “yes”; in experiment [23], “no”; in experiment [24] it was “no”; in experiment [25], “no”. Also, the Efficacy entry in [26] is “no”; in experiment [27] it was “no”; in [28], “no”; in [29] it was “no”; in experiment [30] it was “no”; in [31], “yes”. The Efficacy result in [32] was “no”; in [33], “no”; in experiment [34] it was “yes”; in experiment [35], “no”; in experiment [36], “no”; in [37], “no”. The Efficacy result is “no” in experiment [38]; “no” in experiment [39]; “no” in experiment [40]; “yes” in [41]; “no” in [42]; “no” in [43]. Besides, the Efficacy result in [44], in experiment [45], in experiment [46], in experiment [47], in experiment [48] and in [49] was “no” in each case. Moreover, the Efficacy entry in [50] is “no”; in [51], “no”; in experiment [52], “no”; in [53], “no”; in experiment [54], “no”; in experiment [55] it was “yes”. Moreover, the Efficacy result in [56] was “yes”; in [57], “yes”; in [58] it was “no”; in experiment [59] it was “no”; in experiment [60] it was “no”; in experiment [61], “yes”.
As for `C[C@@H]1[C@H](O)[C@@H](C)/C=C/C=C/C=C/C=C/C=C/C=C/C=C/[C@H](O[C@@H]2O[C@H](C)[C@@H](O)[C@H](N)[C@@H]2O)C[C@@H]2O[C@](O)(C[C@@H](O)C[C@@H](O)[C@H](O)CC[C@@H](O)C[C@@H](O)CC(=O)O[C@H]1C)C[C@H](O)[C@H]2C(=O)O` [Amphotericin, amphotericin b], the Efficacy result in experiment [62], in [63], in experiment [64], in experiment [65], in experiment [66] and in [67] was “yes” throughout. Further, the Efficacy result in experiment [68], in experiment [69], in experiment [70], in experiment [71], in experiment [72] and in [73] was “yes” each time.
In the case of `OC(Cn1cncn1)(Cn1cncn1)c1ccc(F)cc1F` [Fluconazole], the Efficacy result in experiment [62], in [63], in experiment [66], in [67], in [68] and in experiment [70] was “yes” each time. In experiment [72], the Efficacy entry is on record as “yes”.
